This experiment concerns the target T1, recombinant full-length WRN protein (1-1432) (Homo sapiens, UniProt Q14191).
T1 construct: recombinant full-length WRN protein (1-1432)
Put plainly: WRN unwinding activity, fluorogenic 384-well assay (Example A). It is filed as biochemical. As to conditions: WRN unwinding activity, 4 hr; Table 2; read-out: 4 hr UNW pIC50 (converted). The procedure, abridged:
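200 pM enzyme (2× stock) preincubated with compound 4 h at ambient temperature, then 200 μM ATP and 12 nM quenched TAMRA-labelled dsDNA (2× stocks) added for 60 min; EDTA-quenched. Buffer 25 mM Tris pH 8.0, 5 mM NaCl, 2 mM MgCl2. Fluorescence at 525/598 nm; pIC50 from four-parameter fit.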

Structures can show the parent of a compound that is named as a salt.

T1 sequence (Q14191 whole entry): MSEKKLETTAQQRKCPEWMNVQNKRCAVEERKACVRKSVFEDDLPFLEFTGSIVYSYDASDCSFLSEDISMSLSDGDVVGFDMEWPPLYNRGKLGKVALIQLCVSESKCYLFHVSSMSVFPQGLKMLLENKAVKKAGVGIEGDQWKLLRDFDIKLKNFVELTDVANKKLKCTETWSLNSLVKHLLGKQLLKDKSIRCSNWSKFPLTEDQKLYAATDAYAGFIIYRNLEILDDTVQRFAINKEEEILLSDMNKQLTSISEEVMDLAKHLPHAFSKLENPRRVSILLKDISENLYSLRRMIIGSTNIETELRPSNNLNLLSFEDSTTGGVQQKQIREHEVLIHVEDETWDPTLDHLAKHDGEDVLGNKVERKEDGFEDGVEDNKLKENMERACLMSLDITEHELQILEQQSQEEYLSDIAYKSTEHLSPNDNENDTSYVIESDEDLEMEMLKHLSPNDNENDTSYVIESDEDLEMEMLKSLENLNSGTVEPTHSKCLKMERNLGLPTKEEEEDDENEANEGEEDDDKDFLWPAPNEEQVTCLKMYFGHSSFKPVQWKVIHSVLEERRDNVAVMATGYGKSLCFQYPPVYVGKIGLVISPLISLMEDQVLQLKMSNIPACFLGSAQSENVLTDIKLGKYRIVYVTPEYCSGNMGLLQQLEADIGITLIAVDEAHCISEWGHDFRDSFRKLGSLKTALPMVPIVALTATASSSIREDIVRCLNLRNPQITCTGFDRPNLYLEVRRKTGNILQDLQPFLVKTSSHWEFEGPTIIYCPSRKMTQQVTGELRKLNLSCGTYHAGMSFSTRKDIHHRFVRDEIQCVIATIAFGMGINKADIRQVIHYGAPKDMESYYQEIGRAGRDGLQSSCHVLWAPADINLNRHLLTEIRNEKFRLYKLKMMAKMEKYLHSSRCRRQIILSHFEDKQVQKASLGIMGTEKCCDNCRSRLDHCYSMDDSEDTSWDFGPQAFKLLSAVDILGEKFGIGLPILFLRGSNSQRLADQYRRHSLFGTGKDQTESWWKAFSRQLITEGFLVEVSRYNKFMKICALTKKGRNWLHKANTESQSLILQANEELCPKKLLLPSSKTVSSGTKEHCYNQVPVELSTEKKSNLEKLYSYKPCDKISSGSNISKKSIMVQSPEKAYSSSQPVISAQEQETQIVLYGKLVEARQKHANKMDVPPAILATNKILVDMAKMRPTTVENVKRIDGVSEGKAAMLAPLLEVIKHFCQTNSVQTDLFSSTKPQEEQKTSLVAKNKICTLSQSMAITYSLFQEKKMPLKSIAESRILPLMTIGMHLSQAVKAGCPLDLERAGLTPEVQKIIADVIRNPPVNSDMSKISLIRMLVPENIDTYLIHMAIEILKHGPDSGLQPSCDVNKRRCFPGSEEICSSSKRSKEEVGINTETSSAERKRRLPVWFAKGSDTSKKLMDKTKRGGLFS

Consider `Cc1cc(N(C)S(=O)(=O)c2ccc3c(c2)nc(C)n3C)ccc1[C@@H]1CCC[C@H](C(=O)Nc2ccc(C(F)(F)F)cc2F)[C@H]1C(=O)O` (stereo in doubt) [Example 385, rel-(1R,2R,6S)-2-((2-fluoro-4-(trifluoromethyl)phenyl)carbamoyl)-6-(2-methyl-4-((N,1,2-trimethyl-1H-benzo[d]imidazole)-5-sulfonamido)phenyl)cyclohexane-1-carboxylic acid], for which the IC50 is 1.26 µM.
In the case of `Cc1nc2cc(S(=O)(=O)N(C)c3ccc([C@H]4C[C@]5(CCCO5)C[C@@H](C(=O)Nc5ccc(C(F)(F)F)cc5F)[C@@H]4C(=O)O)cc3)ccc2n1C` (stereo in doubt) [Example 388, rel-(5R,7R,8R,9S)-7-((2-fluoro-4-(trifluoromethyl)phenyl)carbamoyl)-9-(4-((N,1,2-trimethyl-1H-benzo[d]imidazole)-5-sulfonamido)phenyl)-1-oxaspiro[4.5]decane-8-carboxylic acid], the IC50 was 0.00398 µM.
In the case of `Cc1nc2cc(S(=O)(=O)N(C)c3ccc([C@H]4C[C@@H]5COC[C@@H]5[C@@H](C(=O)Nc5ccc(C(F)(F)F)cc5F)[C@@H]4C(=O)O)cc3)ccc2n1C` (stereo in doubt) [Example 393, rel-(3aR,4S,5S,6R,7aR)-4-((2-fluoro-4-(trifluoromethyl)phenyl)carbamoyl)-6-(4-((N,1,2-trimethyl-1H-benzo[d]imidazole)-5-sulfonamido)phenyl)octahydroisobenzofuran-5-carboxylic acid], the IC50 was 0.251 µM.
The result for `Cc1nc2cc(S(=O)(=O)N(C)c3ccc([C@@H]4C[C@H]5COC[C@H]5[C@H](C(=O)Nc5ccc(C(F)(F)F)cc5F)[C@H]4C(=O)O)cc3)ccc2n1C` (stereo in doubt) [Example 394, rel-(3aR,4S,5S,6R,7aR)-4-((2-fluoro-4-(trifluoromethyl)phenyl)carbamoyl)-6-(4-((N,1,2-trimethyl-1H-benzo[d]imidazole)-5-sulfonamido)phenyl)octahydroisobenzofuran-5-carboxylic acid] reads 0.501 µM; that for `O=C(O)[C@@H]1[C@@H](c2ccc(-c3ccccc3CN3CCOCC3)cc2)CCC[C@H]1C(=O)Nc1ccc(C(F)(F)F)cc1F` [Example 4, (1R,2R,6S)-2-((2-fluoro-4-(trifluoromethyl)phenyl)carbamoyl)-6-(2′-(morpholinomethyl)-[1,1′-biphenyl]-4-yl)cyclohexane-1-carboxylic acid], 1 µM; that for `O=C(O)[C@@H]1[C@@H](c2ccc(-c3ccn[nH]3)cc2)CCC[C@H]1C(=O)Nc1ccc(C(F)(F)F)cc1F` [Example 5, (1R,2S,6R)-2-(4-(1H-pyrazol-5-yl)phenyl)-6-((2-fluoro-4-(trifluoromethyl)phenyl)carbamoyl)cyclohexane-1-carboxylic acid], 0.02 µM.
On to `O=C(O)[C@@H]1[C@@H](c2ccc(-c3ccncc3)cc2)CCC[C@H]1C(=O)Nc1ccc(C(F)(F)F)cc1F` [Example 7, (1R,2R,6S)-2-((2-fluoro-4-(trifluoromethyl)phenyl)carbamoyl)-6-(4-(pyridin-4-yl)phenyl)cyclohexane-1-carboxylic acid], for which the IC50 was 0.1 µM.
As for `Cn1cc(-c2ccc([C@H]3CCC[C@@H](C(=O)Nc4ccc(C(F)(F)F)cc4F)[C@@H]3C(=O)O)cc2)cn1` [Example 12, (1R,2R,6S)-2-((2-fluoro-4-(trifluoromethyl)phenyl)carbamoyl)-6-(4-(1-methyl-1H-pyrazol-4-yl)phenyl)cyclohexane-1-carboxylic acid], the IC50 is 0.0631 µM.
The result for `Cc1ncccc1-c1ccc([C@H]2CCC[C@@H](C(=O)Nc3ccc(C(F)(F)F)cc3F)[C@@H]2C(=O)O)cc1` [Example 13, (1R,2R,6S)-2-((2-fluoro-4-(trifluoromethyl)phenyl)carbamoyl)-6-(4-(2-methylpyridin-3-yl)phenyl)cyclohexane-1-carboxylic acid, formic acid salt] reads 0.0631 µM.
In the case of `O=C(O)[C@@H]1[C@@H](c2ccc(-c3cccc(O)n3)cc2)CCC[C@H]1C(=O)Nc1ccc(C(F)(F)F)cc1F` [Example 14, (1R,2R,6S)-2-((2-fluoro-4-(trifluoromethyl)phenyl)carbamoyl)-6-(4-(6-hydroxypyridin-2-yl)phenyl)cyclohexane-1-carboxylic acid], the IC50 is 0.00794 µM.
As to `O=C(O)[C@@H]1[C@@H](c2ccc(-c3cnn4c3CCC4)cc2)CCC[C@H]1C(=O)Nc1ccc(C(F)(F)F)cc1F` [Example 17, (1R,2S,6R)-2-(4-(5,6-dihydro-4H-pyrrolo[1,2-b]pyrazol-3-yl)phenyl)-6-((2-fluoro-4-(trifluoromethyl)phenyl)carbamoyl)cyclohexane-1-carboxylic acid], the IC50 is 0.02 µM.
The result for `O=C(O)[C@@H]1[C@@H](c2ccc(-c3ccccc3COC3CCOCC3)cc2)CCC[C@H]1C(=O)Nc1ccc(C(F)(F)F)cc1F` [Example 19, (1R,2R,6S)-2-((2-fluoro-4-(trifluoromethyl)phenyl)carbamoyl)-6-(2′-(((tetrahydro-2H-pyran-4-yl)oxy)methyl)-[1,1′-biphenyl]-4-yl) cyclohexane-1-carboxylic acid] reads 0.316 µM; that for `O=C(Cc1cccc(-c2ccc([C@H]3CCC[C@@H](C(=O)Nc4ccc(C(F)(F)F)cc4F)[C@@H]3C(=O)O)cc2)c1)NC1CC1` [Example 20, (1R,2S,6R)-2-(3′-(2-(cyclopropylamino)-2-oxoethyl)-[1,1′-biphenyl]-4-yl)-6-((2-fluoro-4-(trifluoromethyl)phenyl)carbamoyl)cyclohexane-1-carboxylic acid], 6.31 µM; that for `O=C(O)[C@@H]1[C@@H](c2ccc(-c3cccc(COC4CCOCC4)c3)cc2)CCC[C@H]1C(=O)Nc1ccc(C(F)(F)F)cc1F` [Example 21, (1R,2R,6S)-2-((2-fluoro-4-(trifluoromethyl)phenyl)carbamoyl)-6-(3′-(((tetrahydro-2H-pyran-4-yl)oxy)methyl)-[1,1′-biphenyl]-4-yl) cyclohexane-1-carboxylic acid], 7.94 µM.
The result for `Cc1cn2nc(-c3ccc([C@H]4CCC[C@@H](C(=O)Nc5ccc(C(F)(F)F)cc5F)[C@@H]4C(=O)O)cc3)ccc2n1` [Example 22, (1R,2R,6S)-2-((2-fluoro-4-(trifluoromethyl)phenyl)carbamoyl)-6-(4-(2-methylimidazo[1,2-b]pyridazin-6-yl)phenyl)cyclohexane-1-carboxylic acid] reads 1 µM; that for `O=C(O)[C@@H]1[C@@H](c2ccc(-c3cnn(CC4CC4)c3)cc2)CCC[C@H]1C(=O)Nc1ccc(C(F)(F)F)cc1F` [Example 23, (1R,2S,6R)-2-(4-(1-(cyclopropylmethyl)-1H-pyrazol-4-yl)phenyl)-6-((2-fluoro-4-(trifluoromethyl)phenyl)carbamoyl)cyclohexane-1-carboxylic acid], 0.126 µM; that for `COC(=O)c1cncc(-c2ccc([C@H]3CCC[C@@H](C(=O)Nc4ccc(C(F)(F)F)cc4F)[C@@H]3C(=O)O)cc2)c1` [Example 26, (1R,2R,6S)-2-((2-fluoro-4-(trifluoromethyl)phenyl)carbamoyl)-6-(4-(5-(methoxycarbonyl)pyridin-3-yl)phenyl)cyclohexane-1-carboxylic acid], 10 µM.
The result for `Cc1nsc(-c2ccc([C@H]3CCC[C@@H](C(=O)Nc4ccc(C(F)(F)F)cc4F)[C@@H]3C(=O)O)cc2)c1O` [Example 28, (1R,2R,6S)-2-((2-fluoro-4-(trifluoromethyl)phenyl)carbamoyl)-6-(4-(4-hydroxy-3-methylisothiazol-5-yl)phenyl)cyclohexane-1-carboxylic acid] reads 0.0316 µM.
Turning to `O=C(O)[C@@H]1[C@@H](c2ccc(-c3ccc4nnnn4n3)cc2)CCC[C@H]1C(=O)Nc1ccc(C(F)(F)F)cc1F` [Example 29, (1R,2R,6S)-2-((2-fluoro-4-(trifluoromethyl)phenyl)carbamoyl)-6-(4-(tetrazolo[1,5-b]pyridazin-6-yl)phenyl) cyclohexane-1-carboxylic acid], the IC50 was 3.98 µM.
The result for `O=C(O)[C@@H]1[C@@H](c2ccc(-c3ccc4nncn4n3)cc2)CCC[C@H]1C(=O)Nc1ccc(C(F)(F)F)cc1F` [Example 30, (1R,2S,6R)-2-(4-([1,2,4]triazolo[4,3-b]pyridazin-6-yl)phenyl)-6-((2-fluoro-4-(trifluoromethyl)phenyl)carbamoyl)cyclohe xane-1-carboxylic acid] reads 6.31 µM; that for `COC(=O)c1sccc1-c1ccc([C@H]2CCC[C@@H](C(=O)Nc3ccc(C(F)(F)F)cc3F)[C@@H]2C(=O)O)cc1` [Example 33, (1R,2R,6S)-2-((2-fluoro-4-(trifluoromethyl)phenyl)carbamoyl)-6-(4-(2-(methoxycarbonyl)thiophen-3-yl)phenyl)cyclohexane-1-carboxylic acid], 0.126 µM; that for `O=C(O)[C@@H]1[C@@H](c2ccc(-c3ncnc4sccc34)cc2)CCC[C@H]1C(=O)Nc1ccc(C(F)(F)F)cc1F` [Example 34, (1R,2R,6S)-2-((2-fluoro-4-(trifluoromethyl)phenyl)carbamoyl)-6-(4-(thieno[2,3-d]pyrimidin-4-yl)phenyl)cyclohexane-1-carboxylic acid], 2.51 µM.
The result for `O=C(O)[C@@H]1[C@@H](c2ccc(-c3cccnn3)cc2)CCC[C@H]1C(=O)Nc1ccc(C(F)(F)F)cc1F` [Example 38, (1R,2R,6S)-2-((2-fluoro-4-(trifluoromethyl)phenyl)carbamoyl)-6-(4-(pyridazin-3-yl)phenyl)cyclohexane-1-carboxylic acid] reads 0.00158 µM.
For the compound `COC(=O)N1CCc2c(cnnc2-c2ccc([C@H]3CCC[C@@H](C(=O)Nc4ccc(C(F)(F)F)cc4F)[C@@H]3C(=O)O)cc2)C1` [Example 40, (1R,2R,6S)-2-((2-fluoro-4-(trifluoromethyl)phenyl)carbamoyl)-6-(4-(6-(methoxycarbonyl)-5,6,7,8-tetrahydropyrido[3,4-d]pyridazin-1-yl)phenyl)cyclohexane-1-carboxylic acid], the IC50 was 10 µM.
